According to PubChem BioAssay (NCI):
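A five-concentration, 48-hour dose response in 96-well plates underlies each endpoint, interpolated linearly between surrounding concentrations. GI50 = concentration required for 50% inhibition of growth. TGI: concentration producing complete growth inhibition.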

What was measured:
Assay in all cases: growth of human tumour cells (NCI), 48 h
SF-539 CNS = test system: SF-539 CNS
NCI-H23 lung = test system: NCI-H23 lung
A549 NSCLC = test system: A549 NSCLC
IGROV1 ovarian = test system: IGROV1 ovarian
OVCAR-4 ovarian = test system: OVCAR-4 ovarian
LOX IMVI melanoma = test system: LOX IMVI melanoma
HCT-15 colon = test system: HCT-15 colon
EKVX NSCLC = test system: EKVX NSCLC
CCRF-CEM leukemia = test system: CCRF-CEM leukemia
HCT-116 colon = test system: HCT-116 colon
OVCAR-3 ovarian = test system: OVCAR-3 ovarian
KM12 colon = test system: KM12 colon
SNB-19 CNS = test system: SNB-19 CNS
NCI-H460 lung = test system: NCI-H460 lung
OVCAR-8 ovarian = test system: OVCAR-8 ovarian
RPMI-8226 leukemia = test system: RPMI-8226 leukemia
SR leukemia = test system: SR leukemia
NCI-H226 lung = test system: NCI-H226 lung
UACC-62 melanoma = test system: UACC-62 melanoma
HCC-2998 colon = test system: HCC-2998 colon
BT-549 breast = test system: BT-549 breast
SNB-75 CNS = test system: SNB-75 CNS
HOP-92 NSCLC = test system: HOP-92 NSCLC
HS 578T breast = test system: HS 578T breast
NCI-H522 lung = test system: NCI-H522 lung
U251 CNS = test system: U251 CNS
SK-OV-3 ovarian = test system: SK-OV-3 ovarian
COLO 205 colon = test system: COLO 205 colon
ACHN renal = test system: ACHN renal
HL-60(TB) leukemia = test system: HL-60(TB) leukemia
UO-31 renal = test system: UO-31 renal
SK-MEL-5 melanoma = test system: SK-MEL-5 melanoma
RXF 393 renal = test system: RXF 393 renal
TK-10 renal = test system: TK-10 renal
SF-295 CNS = test system: SF-295 CNS
SN12C renal = test system: SN12C renal
786-0 renal = test system: 786-0 renal
MALME-3M melanoma = test system: MALME-3M melanoma
PC-3 prostate = test system: PC-3 prostate
SK-MEL-28 melanoma = test system: SK-MEL-28 melanoma
UACC-257 melanoma = test system: UACC-257 melanoma
MOLT-4 leukemia = test system: MOLT-4 leukemia
M14 melanoma = test system: M14 melanoma
HOP-62 NSCLC = test system: HOP-62 NSCLC
MCF7 breast = test system: MCF7 breast
T-47D breast = test system: T-47D breast
NCI/ADR-RES ovarian = test system: NCI/ADR-RES ovarian
SF-268 CNS = test system: SF-268 CNS
CAKI-1 renal = test system: CAKI-1 renal
SK-MEL-2 melanoma = test system: SK-MEL-2 melanoma
OVCAR-5 ovarian = test system: OVCAR-5 ovarian
DU-145 prostate = test system: DU-145 prostate
K-562 leukemia = test system: K-562 leukemia
SW-620 colon = test system: SW-620 colon
MDA-MB-231 breast = test system: MDA-MB-231 breast
A498 renal = test system: A498 renal

## COc1ccc(/C(=C2\O[C@@H]([C@H]3COC(C)(C)O3)[C@H]3OC(C)(C)O[C@@H]23)c2cc(OC)c(OC)c(OC)c2)cc1O
SF-539 CNS
  GI50: 2.59 µM
  TGI: 6.63 µM
NCI-H23 lung
  GI50: 7.96 µM
  TGI: 46 µM
A549 NSCLC
  GI50: 23.2 µM
  TGI: > 100 µM
IGROV1 ovarian
  GI50: 33.2 µM
  TGI: > 100 µM
OVCAR-4 ovarian
  GI50: 9.18 µM
  TGI: > 100 µM
LOX IMVI melanoma
  GI50: 5.18 µM
  TGI: > 100 µM
HCT-15 colon
  GI50: 4.51 µM
  TGI: > 100 µM
EKVX NSCLC
  GI50: 55.7 µM
  TGI: > 100 µM
CCRF-CEM leukemia
  GI50: 3.75 µM
  TGI: > 100 µM
HCT-116 colon
  GI50: 4.14 µM
  TGI: > 100 µM
OVCAR-3 ovarian
  GI50: 2.38 µM
  TGI: 5.34 µM
KM12 colon
  GI50: 3.99 µM
  TGI: > 100 µM
SNB-19 CNS
  GI50: 4.28 µM
  TGI: > 100 µM
NCI-H460 lung
  GI50: 4.31 µM
  TGI: > 100 µM
OVCAR-8 ovarian
  GI50: 5.27 µM
  TGI: > 100 µM
RPMI-8226 leukemia
  GI50: 4.63 µM
  TGI: > 100 µM
SR leukemia
  GI50: 6.27 µM
  TGI: > 100 µM
NCI-H226 lung
  GI50: 25.9 µM
  TGI: > 100 µM
UACC-62 melanoma
  GI50: 57.9 µM
  TGI: > 100 µM
HCC-2998 colon
  GI50: 13.2 µM
  TGI: > 100 µM
BT-549 breast
  GI50: 5.39 µM
  TGI: > 100 µM
SNB-75 CNS
  GI50: 1.8 µM
  TGI: 6.31 µM
HOP-92 NSCLC
  GI50: 5.45 µM
  TGI: 31.8 µM
HS 578T breast
  GI50: 2.83 µM
  TGI: 7.88 µM
NCI-H522 lung
  GI50: 2.73 µM
  TGI: 9.08 µM
U251 CNS
  GI50: 3.84 µM
  TGI: 48.2 µM
SK-OV-3 ovarian
  GI50: 4.11 µM
  TGI: 18.5 µM
COLO 205 colon
  GI50: 17.4 µM
  TGI: > 100 µM
ACHN renal
  GI50: 9.31 µM
  TGI: > 100 µM
HL-60(TB) leukemia
  GI50: 3.39 µM
  TGI: 23.3 µM
UO-31 renal
  GI50: 7.53 µM
  TGI: 77.8 µM
SK-MEL-5 melanoma
  GI50: 2.69 µM
  TGI: 11.2 µM
RXF 393 renal
  GI50: 2.12 µM
  TGI: 5.89 µM
TK-10 renal
  GI50: 23.4 µM
  TGI: 61.4 µM
SF-295 CNS
  GI50: 7 µM
  TGI: 37.3 µM
SN12C renal
  GI50: 5.62 µM
  TGI: > 100 µM
786-0 renal
  GI50: 21.1 µM
  TGI: 60.6 µM
MALME-3M melanoma
  GI50: 5.46 µM
  TGI: > 100 µM
PC-3 prostate
  GI50: 5.11 µM
  TGI: > 100 µM
SK-MEL-28 melanoma
  GI50: 5.45 µM
  TGI: > 100 µM
UACC-257 melanoma
  GI50: > 100 µM
  TGI: > 100 µM
MOLT-4 leukemia
  GI50: 6.93 µM
  TGI: > 100 µM
M14 melanoma
  GI50: 2.4 µM
  TGI: 5.9 µM
HOP-62 NSCLC
  GI50: 5.93 µM
  TGI: 25.5 µM
MCF7 breast
  GI50: 3.78 µM
  TGI: > 100 µM
T-47D breast
  GI50: 25.1 µM
  TGI: > 100 µM
NCI/ADR-RES ovarian
  GI50: 2.52 µM
  TGI: 6.91 µM
SF-268 CNS
  GI50: 6.95 µM
  TGI: 31.4 µM
CAKI-1 renal
  GI50: 37.3 µM
  TGI: > 100 µM
SK-MEL-2 melanoma
  GI50: 57.9 µM
  TGI: > 100 µM
OVCAR-5 ovarian
  GI50: > 100 µM
  TGI: > 100 µM
DU-145 prostate
  GI50: 3.29 µM
  TGI: 13.3 µM
K-562 leukemia
  GI50: 3.22 µM
  TGI: > 100 µM
SW-620 colon
  GI50: 4.05 µM
  TGI: > 100 µM
MDA-MB-231 breast
  GI50: 4.58 µM
  TGI: 30.7 µM
A498 renal
  GI50: 35.7 µM
  TGI: > 100 µM
